Where two headings read alike, the source gives them in different places.
Target: T1, Zcchc11 enzyme (Homo sapiens, UniProt Q5TAX3)
T1 construct: made in house; host or cells: HEK293 cells (Zcchc11); E. coli Rosetta II (LIN28A)
T1 sequence (Q5TAX3 212-1420): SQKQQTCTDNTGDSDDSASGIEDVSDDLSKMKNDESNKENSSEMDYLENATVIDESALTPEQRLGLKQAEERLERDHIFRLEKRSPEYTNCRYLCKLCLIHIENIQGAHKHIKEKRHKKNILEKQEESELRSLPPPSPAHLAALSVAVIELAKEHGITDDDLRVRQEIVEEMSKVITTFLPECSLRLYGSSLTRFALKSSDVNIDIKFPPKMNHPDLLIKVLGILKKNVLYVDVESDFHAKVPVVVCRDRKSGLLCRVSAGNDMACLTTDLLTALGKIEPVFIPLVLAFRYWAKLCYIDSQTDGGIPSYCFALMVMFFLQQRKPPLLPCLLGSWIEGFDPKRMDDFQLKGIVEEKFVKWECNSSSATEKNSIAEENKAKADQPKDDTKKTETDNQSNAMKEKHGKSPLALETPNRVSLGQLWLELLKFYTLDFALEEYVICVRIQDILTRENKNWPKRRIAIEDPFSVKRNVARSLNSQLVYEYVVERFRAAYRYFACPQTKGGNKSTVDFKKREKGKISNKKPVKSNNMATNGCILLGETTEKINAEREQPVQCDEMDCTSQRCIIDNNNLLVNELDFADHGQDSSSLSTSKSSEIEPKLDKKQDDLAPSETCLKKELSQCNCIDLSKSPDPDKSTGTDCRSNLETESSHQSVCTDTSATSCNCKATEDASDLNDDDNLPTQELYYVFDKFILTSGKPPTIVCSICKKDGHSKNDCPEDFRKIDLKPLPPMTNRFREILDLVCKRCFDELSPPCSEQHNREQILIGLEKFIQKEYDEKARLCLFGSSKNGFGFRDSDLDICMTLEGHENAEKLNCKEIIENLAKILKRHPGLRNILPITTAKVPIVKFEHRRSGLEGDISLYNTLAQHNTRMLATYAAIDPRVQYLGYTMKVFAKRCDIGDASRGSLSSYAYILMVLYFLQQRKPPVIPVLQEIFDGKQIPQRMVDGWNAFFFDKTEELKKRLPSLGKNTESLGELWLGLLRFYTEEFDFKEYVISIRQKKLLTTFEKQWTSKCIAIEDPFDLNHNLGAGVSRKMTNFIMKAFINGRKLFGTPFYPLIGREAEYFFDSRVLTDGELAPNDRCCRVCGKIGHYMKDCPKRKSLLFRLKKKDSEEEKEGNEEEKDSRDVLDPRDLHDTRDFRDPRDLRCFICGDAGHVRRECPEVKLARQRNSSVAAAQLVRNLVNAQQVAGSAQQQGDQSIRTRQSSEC
Assay: TUTase assay (Zcchc11 assay, Lin28a-dependent polyuridylation of pre-let-7)
Type: biochemical
Conditions: read-out: Potency Lin28a-dep Z11 IC50
Procedure, shortened: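 Human Zcchc11 residues 212-1420 (HEK293-expressed, MBP tag cleaved, C-terminal FLAG) at 0.2 nM, with 10 nM full-length human LIN28A and 2 nM 5′-fluorescein pre-let-7, preincubated with compound 30 min at room temperature. Reaction started with 5 uM UTP plus 4 nM 3′-rhodamine A20 quench probe; fluorescein loss read kinetically, IC50 from initial rates.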

[1] = LIN28A 10 nM, Zcchc11 0.2 nM, 5′-fluorescein pre-let-7 miRNA 2 nM, UTP 5 uM, room temperature, 30 minutes pre-incubation
[2] = Lin28a-dependent Zcchc11 (Z11) TUTase assay
[3] = Lin28a-dependent Zcchc11 (Z11) TUTase activity

Row | Structure (SMILES) | IC50 [2] | other results
1 | CN(C)c1ccc(-n2cc(C(=O)O)c(=O)c3cc(Cl)c(N4CCC[C@@H]4COc4ncccc4OCCN)cc32)cn1 [Example 53, 7-[(2R)-2-([[3-(2-Aminoethoxy)pyridin-2-yl]oxy]methyl)pyrrolidin-1-yl]-6-chloro-1-[6-(dimethylamino)pyridin-3-yl]-4-oxoquinoline-3-carboxylic acid] | – | IC50 [1]: ≤ 1 µM
2 | O=C(O)c1cn(-c2cnc3c(n2)COC3)c2cc(N3CCC[C@@H]3COc3ncccc3Cl)c(Cl)cc2c1=O [Example 46, 6-chloro-7-[(2R)-2-[[(3-chloropyridin-2-yl)oxy]methyl]pyrrolidin-1-yl]-1-[5H,7H-furo[3,4-b]pyrazin-2-yl]-4-oxoquinoline-3-carboxylic acid] | – | IC50 [1]: ≤ 1 µM
3 | O=C(O)c1cn(-c2cccc(F)c2)c2cc(N3CCC[C@@H]3COc3ccccn3)c(F)cc2c1=O [Example 375, (R)-6-fluoro-1-(3-fluorophenyl)-4-oxo-7-(2-((pyridin-2-yloxy)methyl)pyrrolidin-1-yl)-1,4-dihydroquinoline-3-carboxylic acid] | 1 to 10 µM | –
4 | CN(C)C1CN(c2ccc(-n3cc(C(=O)O)c(=O)c4cc(F)c(N5CCC[C@@]5(C)COc5ncccc5Cl)nc43)cn2)C1 [Example 630, (S)-7-(2-(((3-chloropyridin-2-yl)oxy)methyl)-2-methylpyrrolidin-1-yl)-1-(6-(3-(dimethylamino)azetidin-1-yl)pyridin-3-yl)-6-fluoro-4-oxo-1,4-dihydro-1,8-naphthyridine-3-carboxylic acid] | ≤ 1 µM | –
5 | O=C(O)c1cn(-c2ccc3[nH]ccc3c2F)c2cc(N3CCC[C@@H]3COc3ccccn3)c(F)cc2c1=O [Example 438, (R)-6-fluoro-1-(4-fluoro-1H-indol-5-yl)-4-oxo-7-(2-((pyridin-2-yloxy)methyl)pyrrolidin-1-yl)-1,4-dihydroquinoline-3-carboxylic acid] | ≤ 1 µM | –
6 | COc1ccnc(OC[C@H]2C[C@H]3C[C@H]3N2c2cc3c(cc2Cl)c(=O)c(C(=O)O)cn3-c2ccc(N3CC(N(C)C)C3)nc2)c1Cl [Example 674, 6-chloro-7-((1R,3R,5R)-3-(((3-chloro-4-methoxypyridin-2-yl)oxy)methyl)-2-azabicyclo[3.1.0]hexan-2-yl)-1-(6-(3-(dimethylamino)azetidin-1-yl)pyridin-3-yl)-4-oxo-1,4-dihydroquinoline-3-carboxylic acid] | ≤ 1 µM | –
7 | O=C(O)c1cn(-c2ccc(N3CCCC3=O)nc2)c2nc(N3CCC[C@@H]3COc3ncccc3Cl)c(Cl)cc2c1=O [Example 525, (R)-6-chloro-7-(2-(((3-chloropyridin-2-yl)oxy)methyl)pyrrolidin-1-yl)-4-oxo-1-(6-(2-oxopyrrolidin-1-yl)pyridin-3-yl)-1,4-dihydro-1,8-naphthyridine-3-carboxylic acid] | ≤ 1 µM | –
8 | Nc1cc(-n2cc(C(=O)O)c(=O)c3cc(Cl)c(N4CCC[C@@H]4COc4ncccc4Cl)cc32)ccn1 [Compound 209, (R)-1-(2-aminopyridin-4-yl)-6-chloro-7-(2-(((3-chloropyridin-2-yl)oxy)methyl)pyrrolidin-1-yl)-4-oxo-1,4-dihydro-quinoline-3-carboxylic acid] | – | IC50 [3]: ≤ 1 µM
9 | COc1ccc(Cl)c(OC[C@H]2CC3CC3N2c2cc3c(cc2F)c(=O)c(C(=O)O)cn3-c2ccnc(N)c2)n1 (stereo partly drawn) [Example 66, 1-(2-Aminopyridin-4-yl)-7-((3R)-3-(((3-chloro-6-methoxypyridin-2-yl)oxy)methyl)-2-azabicyclo[3.1.0]hexan-2-yl)-6-fluoro-4-oxo-1,4-dihydroquinoline-3-carboxylic acid] | – | IC50 [1]: ≤ 1 µM
10 | CN(C)C1CN(c2ccc(-n3cc(C(=O)O)c(=O)c4cc(Cl)c(N5CC(c6ncccn6)C[C@@H]5COc5ncccc5Cl)cc43)cn2)C1 (stereo partly drawn) [Compound 346, 6-chloro-7-((2R)-2-(((3-chloropyridin-2-yl)oxy)methyl)-4-(pyrimidin-2-yl)pyrrolidin-1-yl)-1-(6-(3-(dimethyl-amino)azetidin-1-yl)pyridin-3-yl)-4-oxo-1,4-dihydro-quinoline-3-carboxylic acid] | – | IC50 [3]: ≤ 1 µM
11 | CN(C[C@H]1CCCN1c1cc2c(cc1F)c(=O)c(C(=O)O)cn2-c1ccc(O)cc1)c1ncccc1Cl [Example 10, (R)-7-(2-(((3-chloropyridin-2-yl)(methyl)amino)methyl)pyrrolidin-1-yl)-6-fluoro-1-(4-hydroxyphenyl)-4-oxo-1,4-dihydroquinoline-3-carboxylic acid] | – | IC50 [1]: 1 to 10 µM
12 | O=C(O)c1cn(C2CCC2)c2cc(N3CCC[C@@H]3COc3ccccn3)c(F)cc2c1=O [Example 448, (R)-1-cyclobutyl-6-fluoro-4-oxo-7-(2-((pyridin-2-yloxy)methyl)pyrrolidin-1-yl)-1,4-dihydroquinoline-3-carboxylic acid] | 1 to 10 µM | –

Second part, led by results:

Row | IC50 [2] | Structure (SMILES) | other results
13 | ≤ 1 µM | O=C(O)c1cn(-c2ccc(N3CC(O)C3)nc2)c2cc(N3CCC[C@@H]3COc3ncccc3Cl)c(Cl)cc2c1=O [Example 423, (R)-6-chloro-7-(2-(((3-chloropyridin-2-yl)oxy)methyl)pyrrolidin-1-yl)-1-(6-(3-hydroxy-azetidin-1-yl)pyridin-3-yl)-4-oxo-1,4-dihydroquinoline-3-carboxylic acid] | –
14 | 1 to 10 µM | CNCCN1CCC(n2cc(C(=O)O)c(=O)c3cc(Cl)c(N4CCC[C@@H]4COc4ncccc4Cl)cc32)CC1 [Example 502, (R)-6-chloro-7-(2-(((3-chloropyridin-2-yl)oxy)methyl)pyrrolidin-1-yl)-1-(1-(2-(methyl-amino)ethyl)piperidin-4-yl)-4-oxo-1,4-dihydroquinoline-3-carboxylic acid] | –
15 | ≤ 1 µM | COCCNc1ccc(-n2cc(C(=O)O)c(=O)c3cc(C#N)c(N4CCC[C@@H]4COc4ncccc4Cl)cc32)cn1 [Example 539, (R)-7-(2-(((3-chloropyridin-2-yl)oxy)methyl)pyrrolidin-1-yl)-6-cyano-1-(6-((2-methoxyethyl)amino)pyridin-3-yl)-4-oxo-1,4-dihydroquinoline-3-carboxylic acid] | –
16 | ≤ 1 µM | Cc1cccnc1OC[C@H]1CCCN1c1cc2c(cc1Cl)c(=O)c(C(=O)O)cn2C1(C)CC1 [Example 460, (R)-6-chloro-1-(1-methylcyclo-propyl)-7-(2-(((3-methylpyridin-2-yl)oxy)methyl)pyrrolidin-1-yl)-4-oxo-1,4-dihydroquinoline-3-carboxylic acid] | –
17 | ≤ 1 µM | CN(C)CCNc1cnc(-n2cc(C(=O)O)c(=O)c3cc(Cl)c(N4CCC[C@@H]4COc4ncccc4Cl)cc32)cn1 [Example 492, (R)-6-chloro-7-(2-(((3-chloropyridin-2-yl)oxy)methyl)pyrrolidin-1-yl)-1-(5-((2-(dimethylamino)ethyl)amino)pyrazin-2-yl)-4-oxo-1,4-dihydroquinoline-3-carboxylic acid] | –
18 | ≤ 1 µM | O=C(O)c1cn(-c2cnc3[nH]ncc3c2)c2cc(N3CCC[C@@H]3COc3ncccc3Cl)c(Cl)cc2c1=O [Example 475, (R)-6-chloro-7-(2-(((3-chloropyridin-2-yl)oxy)methyl)pyrrolidin-1-yl)-4-oxo-1-(1H-pyrazolo[3,4-b]pyridin-5-yl)-1,4-dihydroquinoline-3-carboxylic acid] | –
19 | ≤ 1 µM | CNc1cnc(-n2cc(C(=O)O)c(=O)c3cc(Cl)c(N4CCC[C@@H]4COc4ncccc4Cl)cc32)cn1 [Example 506, (R)-6-chloro-7-(2-(((3-chloropyridin-2-yl)oxy)methyl)pyrrolidin-1-yl)-1-(5-(methylamino)pyrazin-2-yl)-4-oxo-1,4-dihydroquinoline-3-carboxylic acid] | –
20 | ≤ 1 µM | Nc1cc(-n2cc(C(=O)O)c(=O)c3cc(Cl)c(N4CCC[C@@H]4COc4ncccc4Cl)cc32)cnn1 [Example 617, (R)-1-(6-aminopyridazin-4-yl)-6-chloro-7-(2-(((3-chloropyridin-2-yl)oxy)methyl)pyrrolidin-1-yl)-4-oxo-1,4-dihydroquinoline-3-carboxylic acid] | –
